Assay results as given in patent US12134611B2, “Compounds and compositions for treating conditions associated with NLRP activity” (Novartis AG, priority 2018, dated 2024).

Target: T1, hNLRP3 (Homo sapiens, UniProt Q96P20)
T1 construct: THP-1 cells were purchased from the American Type Culture Collection; host or cells: THP-1 cells, PMA-differentiated, stimulated with gramicidin
Assay: IL-1β production in PMA-differentiated THP-1 cells stimulated with gramicidin (hTHP-1 assay)
Format: cell-based
Conditions: read-out: NLRP3 Antagonist, hNLRP3 (THP-1, IL-1b) Normalized: GeoMean IC50
Method: Procedure 1: IL-1β Production in PMA-Differentiated THP-1 Cells Stimulated with Gramicidin.
THP-1 cells were purchased from the American Type Culture Collection and sub-cultured according to instructions from the supplier. […] Prior to the experiment, compounds were dissolved in dimethyl sulfoxide (DMSO) to generate a 30 mM stock. […] DMSO was backfilled in the plate to achieve a final DMSO assay concentration of 0.37%. The plate was then sealed and stored at room temperature until required.
THP-1 cells were treated with PMA (Phorbol 12-myristate 13-acetate) (20 ng/ml) for 16-18 hours. On the day of the experiment the media was removed and adherent cells were detached with trypsin for 5 minutes.
Procedure 2: IL-1β Production in PMA-Differentiated THP-1 Cells Stimulated with Gramicidin.
THP-1 cells were purchased from the American Type Culture Collection and sub-cultured according to instructions from the supplier. […] Prior to the experiment THP-1 were treated with PMA (Phorbol 12-myristate 13-acetate) (20 ng/ml) for 16-18 hours. Compounds were dissolved in dimethyl sulfoxide (DMSO) to generate a 30 mM stock. On the day of the experiment the media was removed and adherent cells were detached with trypsin for 5 minutes. […] Final DMSO concentration was at 0.37%. Cells were incubated with compounds for 1 hour and then stimulated with gramicidin (5 μM) (Enzo) for 2 hours. Plates were then centrifuged at 340 g for 5 min. Cell free supernatant (40 μL) was collected using a 96-channel PlateMaster (Gilson) and the production of IL-1β was evaluated by HTRF (cisbio).
1. Experimental procedure
1.2 Compound Preparation • Prepare the 3-fold serial dilution of the compounds with DMSO in a 384-well LDV Microplate using TECAN EVO system to generate the compound source plate with 10 concentrations. Top concentration is 30 mM. FIG. 5 depicts the layout of the microplate.
FIG. 5 depicts the layout of the plates: HC: 100 μM CRID3 (MCC950)+5 μM gramicidin LC: 5 μM Gramicidin.
1.5 IL-1β Detection • 1) Homogenize the 5× diluent #5 with a vortex and add 1 volume of stock solution in 4 volumes of distilled water. • 2) Thaw 20× stock solution of anti-IL1β-Cryptate-antibody and anti-IL1β XL-antibody. […] 2. Data Analysis: • 1.

T1 sequence (Q96P20 whole entry): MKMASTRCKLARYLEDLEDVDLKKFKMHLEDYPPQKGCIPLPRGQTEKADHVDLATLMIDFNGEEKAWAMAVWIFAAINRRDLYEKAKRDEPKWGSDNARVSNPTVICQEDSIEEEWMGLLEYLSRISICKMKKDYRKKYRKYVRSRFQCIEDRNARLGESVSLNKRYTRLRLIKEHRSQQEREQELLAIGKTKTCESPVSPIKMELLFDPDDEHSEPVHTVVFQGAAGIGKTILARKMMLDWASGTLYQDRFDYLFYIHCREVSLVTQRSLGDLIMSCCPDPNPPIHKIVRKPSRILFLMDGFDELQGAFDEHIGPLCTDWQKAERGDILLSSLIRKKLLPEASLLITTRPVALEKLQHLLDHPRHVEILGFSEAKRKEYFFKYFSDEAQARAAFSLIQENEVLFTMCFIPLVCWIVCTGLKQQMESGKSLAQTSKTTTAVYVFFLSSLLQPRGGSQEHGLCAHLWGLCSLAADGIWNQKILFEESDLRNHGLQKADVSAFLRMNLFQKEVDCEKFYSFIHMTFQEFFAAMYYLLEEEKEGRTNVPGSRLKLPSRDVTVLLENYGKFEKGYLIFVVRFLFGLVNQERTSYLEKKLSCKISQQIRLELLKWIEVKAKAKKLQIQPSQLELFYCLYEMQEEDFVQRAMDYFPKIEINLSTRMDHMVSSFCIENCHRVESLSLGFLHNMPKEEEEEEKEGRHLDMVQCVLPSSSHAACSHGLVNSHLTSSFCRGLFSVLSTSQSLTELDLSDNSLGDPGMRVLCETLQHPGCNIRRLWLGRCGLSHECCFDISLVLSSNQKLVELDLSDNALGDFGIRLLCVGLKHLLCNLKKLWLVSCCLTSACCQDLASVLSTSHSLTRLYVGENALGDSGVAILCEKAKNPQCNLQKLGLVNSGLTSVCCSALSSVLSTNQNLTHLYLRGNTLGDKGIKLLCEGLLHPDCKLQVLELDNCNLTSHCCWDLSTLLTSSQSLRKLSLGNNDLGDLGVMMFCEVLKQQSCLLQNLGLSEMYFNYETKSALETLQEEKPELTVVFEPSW

| IC50 [µM] | SMILES |
| --- | --- |
| 1 to 5 | O=C(N=S1(=O)NC(=O)c2ccccc21)Nc1c2c(cc3c1CCC3)CCC2 (racemic) [Compound 129, 3-(1,3-dioxo-2,3-dihydro-1-^λ-6,2-benzothiazol-1-ylidene)-1-(1,2,3,5,6,7-hexahydro-s-indacen-4-yl)urea] |
| 0.2 to 1 | CC1(C)CS(=O)(=NC(=O)Nc2c3c(cc4c2CCC4)CCC3)NC1=O (single isomer, unassigned) [Compound 102a, (S or R)-1-(4,4-dimethyl-1-oxido-3-oxo-1l6-isothiazolidin-1-ylidene)-3-(1,2,3,5,6,7-hexahydro-s-indacen-4-yl)urea] |
| 5 to 30 | CC1(C)CS(=O)(=NC(=O)Nc2c3c(cc4c2CCC4)CCC3)NC1=O (single isomer, unassigned) [Compound 102b, (R or S)-1-(4,4-dimethyl-1-oxido-3-oxo-1l6-isothiazolidin-1-ylidene)-3-(1,2,3,5,6,7-hexahydro-s-indacen-4-yl)urea] |
| > 30 | O=C(N=S1(=O)NC(=O)c2ccc(Br)cc21)Nc1c2c(cc3c1CCC3)CCC2 (single isomer, unassigned) [Compound 103a, (R or S)-1-(6-bromo-1-oxido-3-oxo-2,3-dihydro-1l4-benzo[d]isothiazol-1-ylidene)-3-(1,2,3,5,6,7-hexahydro-s-indacen-4-yl)urea] |
| 5 to 30 | O=C(N=S1(=O)NC(=O)c2ccc(Br)cc21)Nc1c2c(cc3c1CCC3)CCC2 (single isomer, unassigned) [Compound 103b, (S or R)-1-(6-bromo-1-oxido-3-oxo-2,3-dihydro-1l4-benzo[d]isothiazol-1-ylidene)-3-(1,2,3,5,6,7-hexahydro-s-indacen-4-yl)urea] |
| > 30 | CN1Cc2ccccc2S1(=O)=NC(=O)Nc1c2c(cc3c1CCC3)CCC2 (single isomer, unassigned) [Compound 107a] |
| 0.2 to 1 | O=C1CCCS(=O)(=NC(=O)Nc2c3c(cc4c2CCC4)CCC3)N1 (single isomer, unassigned) [Compound 113a, (S or R)-1-(1,2,3,5,6,7-hexahydro-s-indacen-4-yl)-3-(1-oxido-3-oxo-1l6,2-thiazinan-1-ylidene)urea] |
| 5 to 30 | O=C(N=S1(=O)CCCN1)Nc1c2c(cc3c1CCC3)CCC2 (single isomer, unassigned) [Compound 119a, (R or S)-1-(1,2,3,5,6,7-hexahydro-s-indacen-4-yl)-3-(1-oxido-1l6-isothiazolidin-1-ylidene)urea] |
| 5 to 30 | CC(C)(O)c1ccc2c(c1)S(=O)(=NC(=O)Nc1c3c(cc4c1CCC4)CCC3)NC2=O (single isomer, unassigned) [Compound 127b, (S or R)-1-(1,2,3,5,6,7-hexahydro-s-indacen-4-yl)-3-(6-(2-hydroxypropan-2-yl)-1-oxido-3-oxo-2,3-dihydro-1l4-benzo[d]isothiazol-1-ylidene)urea] |
| 0.2 to 1 | O=C(N=S1(=O)NC(=O)c2ccccc21)Nc1c2c(cc3c1CCC3)CCC2 (single isomer, unassigned) [Compound 129a, 3-[(1R or 1S)-1,3-dioxo-2,3-dihydro-1-^λ-6,2-benzothiazol-1-ylidene]-1-(1,2,3,5,6,7-hexahydro-s-indacen-4-yl)urea] |
| 5 to 30 | O=C(N=S1(=O)NC(=O)c2ccccc21)Nc1c2c(cc3c1CCC3)CCC2 (single isomer, unassigned) [Compound 129b, 3-[(1S or 1R)-1,3-dioxo-2,3-dihydro-1-^λ-6,2-benzothiazol-1-ylidene]-1-(1,2,3,5,6,7-hexahydro-s-indacen-4-yl)urea] |

More lines, now with the values behind:

| SMILES | IC50 [µM] |
| --- | --- |
| CC(C)(O)c1ccc2c(c1)S(=O)(=NC(=O)Nc1c3c(cc4c1CCC4)CCC3)NC2=O (racemic) [Compound 127, 1-(1,2,3,5,6,7-hexahydro-s-indacen-4-yl)-3-[6-(2-hydroxypropan-2-yl)-1,3-dioxo-2,3-dihydro-1-^λ-6,2-benzothiazol-1-ylidene]urea] | 0.2 to 1 |
| CC(C)c1cc2c(c(C(C)C)c1CC(=O)N=S1(=O)NC(=O)c3ccc(C(C)(C)O)cc31)COC2 (single isomer, unassigned) [Compound 104a, (S or R)-2-(4,6-diisopropyl-1,3-dihydroisobenzofuran-5-yl)-N-(6-(2-hydroxypropan-2-yl)-1-oxido-3-oxo-2,3-dihydro-1l4-benzo[d]isothiazol-1-ylidene)acetamide] | > 30 |
| CC(C)(O)c1ccc2c(c1)S(=O)(=NC(=O)Nc1c3c(nc(C4CC4)c1C1CC1)CCC3)NC2=O (single isomer, unassigned) [Compound 106a, 1(R or S)-1-(2,3-dicyclopropyl-6,7-dihydro-5H-cyclopenta[b]pyridin-4-yl)-3-(6-(2-hydroxypropan-2-yl)-1-oxido-3-oxo-2,3-dihydro-1l4-benzo[d]isothiazol-1-ylidene)urea] | 1 to 5 |
| CC(C)(O)c1ccc2c(c1)S(=O)(=NC(=O)Nc1c3c(nc(C4CC4)c1C1CC1)CCC3)NC2=O (single isomer, unassigned) [Compound 106b, 1(S or R)-1-(2,3-dicyclopropyl-6,7-dihydro-5H-cyclopenta[b]pyridin-4-yl)-3-(6-(2-hydroxypropan-2-yl)-1-oxido-3-oxo-2,3-dihydro-1l4-benzo[d]isothiazol-1-ylidene)urea] | > 30 |
| Cc1c(C(F)(F)F)nc2c(c1NC(=O)N=S1(=O)NC(=O)c3ccc(C(C)(C)O)cc31)CCC2 (single isomer, unassigned) [Compound 108a, (R or S)-1-(6-(2-hydroxypropan-2-yl)-1-oxido-3-oxo-2,3-dihydro-1l4-benzo[d]isothiazol-1-ylidene)-3-(3-methyl-2-(trifluoromethyl)-6,7-dihydro-5H-cyclopenta[b]pyridin-4-yl)urea] | 0.2 to 1 |
| Cc1c(C(F)(F)F)nc2c(c1NC(=O)N=S1(=O)NC(=O)c3ccc(C(C)(C)O)cc31)CCC2 (single isomer, unassigned) [Compound 108b, (S or R)-1-(6-(2-hydroxypropan-2-yl)-1-oxido-3-oxo-2,3-dihydro-1l4-benzo[d]isothiazol-1-ylidene)-3-(3-methyl-2-(trifluoromethyl)-6,7-dihydro-5H-cyclopenta[b]pyridin-4-yl)urea] | > 30 |
| CC(C)(O)c1ccc2c(c1)S(=O)(=NC(=O)Nc1c3c(cc4c1CC4)CCC3)NC2=O (single isomer, unassigned) [Compound 112a, (R or S)-1-(6-(2-hydroxypropan-2-yl)-1-oxido-3-oxo-2,3-dihydro-1l4-benzo[d]isothiazol-1-ylidene)-3-(2,4,5,6-tetrahydro-1H-cyclobuta[f]inden-3-yl)urea] | 0.04 to 0.2 |
| CC(C)(O)c1ccc2c(c1)S(=O)(=NC(=O)Nc1c3c(cc4c1CC4)CCC3)NC2=O (single isomer, unassigned) [Compound 112b, (S or R)-1-(6-(2-hydroxypropan-2-yl)-1-oxido-3-oxo-2,3-dihydro-1l4-benzo[d]isothiazol-1-ylidene)-3-(2,4,5,6-tetrahydro-1H-cyclobuta[f]inden-3-yl)urea] | 1 to 5 |
| CC(C)(O)c1ccc2c(c1)S(=O)(=NC(=O)Cc1c3c(cc4c1CCC4)CCC3)NC2=O (single isomer, unassigned) [Compound 115a, (S or R)-2-(1,2,3,5,6,7-hexahydro-s-indacen-4-yl)-N-(6-(2-hydroxypropan-2-yl)-1-oxido-3-oxo-2,3-dihydro-1l4-benzo[d]isothiazol-1-ylidene)acetamide] | 5 to 30 |
| CC(C)(O)c1ccc2c(c1)C(=O)NS2(=O)=NC(=O)Nc1c2c(cc3c1CCC3)CCC2 (single isomer, unassigned) [Compound 121a, (R or S)-1-(1,2,3,5,6,7-hexahydro-s-indacen-4-yl)-3-(5-(2-hydroxypropan-2-yl)-1-oxido-3-oxo-2,3-dihydro-1l4-benzo[d]isothiazol-1-ylidene)urea] | 0.2 to 1 |
| CC(C)(O)c1ccc2c(c1)C(=O)NS2(=O)=NC(=O)Nc1c2c(cc3c1CCC3)CCC2 (single isomer, unassigned) [Compound 121b, (S or R)-1-(1,2,3,5,6,7-hexahydro-s-indacen-4-yl)-3-(5-(2-hydroxypropan-2-yl)-1-oxido-3-oxo-2,3-dihydro-1l4-benzo[d]isothiazol-1-ylidene)urea] | 5 to 30 |
| CC(C)(O)c1ccc2c(c1)S(=O)(=NC(=O)Nc1c3c(cc4c1CCC4)CCC3)NC2=O (single isomer, unassigned) [Compound 127a, (R or S)-1-(1,2,3,5,6,7-hexahydro-s-indacen-4-yl)-3-(6-(2-hydroxypropan-2-yl)-1-oxido-3-oxo-2,3-dihydro-1l4-benzo[d]isothiazol-1-ylidene)urea] | 0.04 to 0.2 |
